The text below walks through data of patent publication US20250295631A1, “NOVEL TREATMENT” (University of Liverpool, priority 2022, published 2025).

The procedure of this data set:
To investigate cross-linker stability 0.2 M BS^3 was prepared in various buffers. The pH was measured using a SevenGO SG2 pH meter with an InLab Ultra-Micro-ISM electrode (Mettler Toldedo, Leicester, UK). Nine carbonate buffer and two phosphate buffer formulations were investigated. All were prepared in deionised H2O. Formulations can be seen in Table 1 below. The pH of BS^3 at concentrations of 0.2 M and 0.035 M (20 mg/ml as per patent US2014/0271897 A1 claim [0358]) in phosphate buffered saline (PBS) were also measured. The pH was measured immediately after addition BS3 and filtration (00:00) then at 30 mins, 1 hour, 2 hours, 3 hours, 4 hours, 24 hours.
BS^3 (bis(sulfosuccinimidyl)suberate, Thermo Scientific Pierce, IL, USA) solutions was prepared to concentrations of 0.2 M in the buffer solution, vortexed for 1 min and then filtered through 0.2 μm filter.

Read-outs that look alike come from different tables or passages of the source. Some results are limits rather than exact numbers.

On to bis(sulfosuccinimidyl)suberate [BS3], for which the “pH by 30 minutes” value (20 mg/ml (0.035 M) BS^3 in PBS (Dulbecco A), formulation of US2014/0271897 A1 [0358]) is recorded as 5.18. Besides, the precipitation entry is “Precipitation was observed” (0.2 M BS^3 in 0.1 M and 0.2 M carbonate buffers, at 24 hours); “did not have any precipitation” (0.2 M BS^3 in 0.5 M carbonate:bicarbonate buffer, ratio 5:5, 24 hour testing period); “did not have any precipitation” (0.2 M BS^3 in 0.5 M carbonate:bicarbonate buffer, ratio 9:1, 24 hour testing period). For the same substance, the “initial pH after the addition of 0.2 M BS^3” value (0.2 M BS^3 in 0.5 M carbonate buffers) is recorded as greater than 7. In addition, the “pH over the 24 hour testing period” value is, setting by setting: (0.2 M BS^3 in 0.5 M carbonate:bicarbonate buffer, ratio 5:5) greater than 6; (0.2 M BS^3 in 0.5 M carbonate:bicarbonate buffer, ratio 9:1) greater than 6.
